Data on nine compounds can be found in patent US7230027B2, “Anti-first-pass effect compounds” (Bioavailability Systems, L.L.C., priority 1997, dated 2007).

Each structure is given as a SMILES string. Read-outs that look alike come from different tables or passages of the source.

The test system of series [1] is Human Cytochrome P450. The series is described as follows: Protocol C: human cytochrome P450-mediated biotransformation of terfenadine in human hepatic S9. It is filed as biochemical. The method, then:
Protocol C: Assessment of Human Cytochrome P450-Mediated Biotransformation
The process of preparing incubation mixtures begins by mixing 10 uL of ethanol or an ethanolic solution containing an inhibitor with 100 uL of 100 mg/mL bovine serum albumin (Sigma) dissolved in reaction buffer at room temperature. Reaction buffer is composed of 0.10 M sodium phosphate, 1.0 mM ethylenediaminetetraacetic acid, and 5.0 mM magnesium chloride, pH 7.4 (all reagents: Fisher Scientific). Inhibitory chemicals used were ketoconazole (Research Diagnostics, Inc.), miconazole, bergapten, xanthotoxin (previous three from Sigma), bergamotin, imperatorin, isopimpinellin, psoralen, angelicin (previous five from Indofine Chemical Company, Inc.), and fractions or precipitates resulting from Protocols A, A′, B, B′, or B″ above. When possible, final inhibitor concentrations were expressed in molarity by calculation from the weighed material or by interpolation from HPLC calibration curves prepared with reference materials; otherwise, concentrations are expressed as weight per volume. Reaction tubes are placed on ice in preparation for the manipulations that follow. Sufficient reaction buffer is added so that the final volume of each tube will be 500 uL, 5 uL of a 100-fold concentrate for generating reduced nicotinamide adenine dinucleotide phosphate is added (such that completed reaction mixture contains 1.0 mM nicotinamide adenine dinucleotide phosphate, 1 U/mL glucose-6-phosphate dehydrogenase, and 10 mM glucose-6-phosphate; all from Sigma), and then human hepatic S9 (Anatomic Gift Foundation) is thawed and added in sufficient amounts to cause readily detectable amounts of metabolites to be formed in control reactions (amount necessary varies among individuals, but 10 uL is typical).
The samples prepared above are readied for HPLC assessment using the protocol that follows. Each tube is vortex mixed and centrifuged for 10 min at setting 35, the resulting supernatant is transferred to a clean tube, and the liquid is evaporated using a Speed Vac apparatus. The residue in each tube is first dissolved in 40 uL 1:1 acetonitrile:water, 2.5 mL of acetonitrile is added, and the centrifuge-transfer-evaporate step just described is repeated.
Linear gradients are used for elution and are formed by mixing mobile phase A composed of water with mobile phase B composed of 0.025% (v/v) formic acid in acetonitrile (instrument: Hewlett Packard). The elution time, in minutes, the percentage of mobile phase B present in the mixed mobile phase, and the flow rate (mL/min) are as follows: 0, 10, 0.10; 2, 10, 0.10; 3.5, 10, 0.20; 4, 10, 0.25; 5, 10, 0.25; 30, 55, 0.25; 32, 98, 0.25; 33, 98, 0.40; 39.8, 98, 0.40; 40, 98, 0.25; 45, 10, 0.25; 45.25, 10, 0.20; 50, 10, 0.20; 50.25, 10, 0.10. The chromatographic column has dimensions of 150 mm length×2.1 mm internal diameter, is packed with a proprietary material (Prism, Keystone Scientific, Inc.), is protected with a 2 mm internal diameter column containing the same material and with a PTFE filter, and is maintained at 35+/−0.2° C. The dry sample residue is mixed with 60 uL of 1:1 acetonitrile:water followed by 40 uL water just prior to each 50.25 min run cycle. The column eluate from each 10 uL injection is monitored for fluorescence with excitation at 228 nm, emission at 291 nm, and bandpass filtration at 280 nm.

For series [2] the following is noted: heart transplant patients, cyclosporin co-administered with ketoconazole; cited from earlier work.
The conditions of series [3]: oral tablet; cited from earlier work.
In series [4] the test system is Human Cytochrome P450. In words: Protocol C′: human cytochrome P450-mediated biotransformation of saquinavir in human hepatic S9. It is filed as biochemical. As for the experimental part: Protocol C′: Assessment of Human Cytochrome P450-Mediated Biotransformation
The process of preparing incubation mixtures begins by mixing 10 uL of ethanol (control reactions) or an ethanolic solution containing an inhibitor with 100 uL of 100 mg/mL bovine serum albumin (Sigma) dissolved in reaction buffer at room temperature. Reaction buffer is composed of 0.10 M sodium phosphate, 1.0 mM ethylenediaminetetraacetic acid, and 5.0 mM magnesium chloride, pH 7.4 (all reagents: Fisher Scientific). […] Sufficient reaction buffer is added so that the final volume of each tube will be 500 uL, 5 uL of a 100-fold concentrate for generating reduced nicotinamide adenine dinucleotide phosphate is added (such that completed reaction mixture contains 1.0 mM nicotinamide adenine dinucleotide phosphate, 1 U/mL glucose-6-phosphate dehydrogenase, and 10 mM glucose-6-phosphate; all from Sigma), and then human hepatic S9 (Anatomic Gift Foundation) is thawed and added in sufficient amounts to cause readily detectable amounts of metabolites to be formed in control reactions (amount necessary varies among individuals, but 10 uL is typical). […]
The samples prepared above are readied for HPLC assessment using the protocol that follows. […]

Setting [5] is: protocol not given, Protocol C or C′.

As to `C/C(=C\COc1ccc2ccc(=O)oc2c1)CC[C@@H](O)C(C)(C)O` [marmin], the “first-pass effect inhibition, determined herein” value (from here on “first-pass effect inhibition”) in series [1] is on record as “ineffective”.
With `CC(=CCOc1c2ccoc2cc2oc(=O)ccc12)CCC(O)C(C)(C)O` (centres unmarked) [6′,7′-dihydroxybergamottin], the “first-pass effect inhibition” value in series [1] was “ineffective”.
With `O=c1ccc2cc3ccoc3cc2o1` [psoralen], the “first-pass effect inhibition” value in series [1] (setting [5]) was “ineffective”.
As to `CC(=O)N1CCN(c2ccc(OCC3COC(Cn4ccnc4)(c4ccc(Cl)cc4Cl)O3)cc2)CC1` (centres unmarked) [ketoconazole], the “reduction of the dose of cyclosporin required” value in series [2] was “approximately 85%”.
As to `CC(C)(C)c1ccc(C(O)CCCN2CCC(C(O)(c3ccccc3)c3ccccc3)CC2)cc1` (centres unmarked) [terfenadine], in series [3], the “part of a tablet given by mouth quickly changed to metabolites” value is 99.5%.
For `COc1c2ccoc2c(OC)c2oc(=O)ccc12` [isopimpinellin], in series [1], the “first-pass effect inhibition” value was “ineffective”.
Regarding `CC(C)=CCC/C(C)=C/COc1c2ccoc2cc2oc(=O)ccc12` [bergamottin], in series [4], the “first-pass inhibition (generation of saquinavir metabolites in presence of inhibitor)” value is listed as “essentially ineffective”. The “first-pass effect inhibition” value in series [1] is “ineffective”.
For the compound `O=c1ccc2ccc3occc3c2o1` [angelicin], the “first-pass effect inhibition” value in series [1] (setting [5]) is “ineffective”.
For `CC(C)=CCOc1c2occc2cc2ccc(=O)oc12` [imperatorin], the “first-pass inhibition (generation of saquinavir metabolites in presence of inhibitor)” value in series [4] (Protocol C′, human hepatic S9, FIG. 1) was “essentially ineffective”. Further, the “first-pass effect inhibition” value in series [1] (setting [5]) is given as “ineffective”.
